Experimental data from paper PMC4229301, “A Polymeric Prodrug of 5-Fluorouracil-1-Acetic Acid Using a Multi-Hydroxyl Polyethylene Glycol Derivative as the Drug Carrier” (PLoS ONE, 2014).
Each block holds one compound with its values, some of them ahead of it.

Legend:
[1] = test system: Kunming mice; assay: Safety evaluation: myelosuppression (white blood cell and blood platelet counts) after intravenous administration; details: i.v., same doses, n=12
[2] = Pharmacokinetics study after i.v. injection in rats; assay type: in vivo, Wistar rats
Experimental: Male Wistar rats were purchased from The laboratory Animal Center of Sichuan University. 12 Wistar rats (body weight: 200 g±20 g) were divided into two groups randomly (n = 6). […] The blood samples were collected into heparinized centrifuge tubes at predetermined intervals (see Table S2 in file SI) by retro-orbital puncture, and the plasma was separated by centrifugation. Each plasma sample of the test groups was divided into two portions. They were treated as hydrolyzed and unhydrolyzed as described in the “In vitro drug release” section. The two portions of the samples were analyzed by HPLC to determine the plasma concentrations of released 5-FA and total 5-FA of the conjugate whereas the plasma samples of the control group were treated as unhydrolyzed samples.
(§1) The data of pharmacokinetics and in vivo distribution study were processed using the Drug and Statistics Software 2.0 (DAS 2.0, Shanghai, China). The statistical analysis of the samples was performed by using one-way ANOVA and Student's t-test. p-values <0.05 were considered as statistically different.

[3] = In vivo distribution in H22 tumor-bearing mice; design: species or system Kunming mice
Experimental: The tumor-bearing animal model was established by subcutaneous injection of H22 cells (1×10^7 cells/ml, in 0.2 ml saline) into the right axillary region of Kunming mice. The sizes of tumors were monitored 7 days after inoculation and the tumor volumes were calculated as described in the “Antitumor activity in tumor-bearing mice” section. The mice with tumor volumes between 0.35 cm^3 and 0.65 cm^3 were randomized into two groups (n = 30). […] The mice were exsanguinated and sacrificed by neck dislocation at predetermined time points. Tissues including heart, liver, spleen, lung, kidney, brain and tumor were collected, washed with physiological saline, weighed and homogenized with two fold concentrated physiological saline. The samples of the test group were treated as hydrolyzed samples as described in the section “In vitro drug release”, whereas those of the control group were treated as unhydrolyzed samples. All data are presented as the concentration of 5-FA.
as §1

[4] = male, Wistar, rat, plasma, iv, 20 mg/kg
[5] = rats, i.v., 20 mg/kg 5-FA or 189 mg/kg 5-FA-PAE

Compound: O=c1[nH]cc(F)c(=O)[nH]1 [5-Fu, 5-fluorouracil]
- number of blood platelets ([1]; 1 day after injection): 792 ± 122 ×10^9/L
- number of blood platelets ([1]; 4 days after injection): 819 ± 211 ×10^9/L
- number of white blood cells ([1]; 4 days after injection): 6.84±5.76 ×10^9/L
- number of blood platelets ([1]; 7 days after injection): 858 ± 254 ×10^9/L
- number of white blood cells ([1]; 7 days after injection): 7.34±2.82 ×10^9/L
- number of blood platelets ([1]; 10 days after injection): 863 ± 382 ×10^9/L
- number of white blood cells ([1]; 10 days after injection): 8.59±2.39 ×10^9/L

- AUC(0-inf) [2, 4]: 21600 ± 4470 ng·h/mL
- AUC(0-t) [2, 4]: 21400 ± 4360 ng·h/mL
- Cmax [2, 4]: 74.9 ± 10.2 µg/mL
- Tmax [2, 4]: 1 min
- MRT last ([2]; male, Wistar, rat, plasma, iv, 20 mg/kg, read-out: MRT 0-t): 40.7 ± 8.52 min
- MRT inf ([2]; male, Wistar, rat, plasma, iv, 20 mg/kg, read-out: MRT 0-∞): 47.7 ± 14.4 min
- Vd ([2]; male, Wistar, rat, plasma, iv, 20 mg/kg, read-out: V (apparent volume of distribution)): 2.11 ± 0.62 L/kg
- half-life ([2]; male, Wistar, rat, plasma, iv, 20 mg/kg, read-out: t1/2 (elimination half life) (converted)): 92.3 ± 25.1 min
- concentration at 1 min ([2]; male, Wistar, rat, plasma, iv, rats, i.v. 20 mg/kg 5-FA, 1 min): 79.9 ± 10.2 µg/mL
- concentration at 5 min ([2]; male, Wistar, rat, plasma, iv, rats, i.v. 20 mg/kg 5-FA, 5 min): 79.9 ± 2.86 µg/mL
- concentration at 10 min ([2]; male, Wistar, rat, plasma, iv, rats, i.v. 20 mg/kg 5-FA, 10 min): 79.9 ± 3.52 µg/mL
- concentration at 15 min ([2]; male, Wistar, rat, plasma, iv, rats, i.v. 20 mg/kg 5-FA, 15 min): 79.9 ± 5.07 µg/mL
- concentration at 30 min ([2]; male, Wistar, rat, plasma, iv, rats, i.v. 20 mg/kg 5-FA, 30 min): 79.9 ± 2.8 µg/mL
- concentration at 1 h ([2]; male, Wistar, rat, plasma, iv, rats, i.v. 20 mg/kg 5-FA, 1 h): 79.9 ± 0.986 µg/mL
- concentration at 2 h ([2]; male, Wistar, rat, plasma, iv, rats, i.v. 20 mg/kg 5-FA, 2 h): 79.9 ± 0.814 µg/mL
- time of complete removal from the blood circulation after administration ([2]; rats, i.v.): 6∼8 h
- Plasma concentration, 5-FA ([2]; rats, i.v. 20 mg/kg 5-FA, 10 h): -
- Plasma concentration, 5-FA ([2]; rats, i.v. 20 mg/kg 5-FA, 24 h): -
- Cl (clearance) [2, 5]: 0.967 ± 0.259 mL/g/h
- VRT 0-t [2, 5]: 1.519±0.326 h^2
- VRT 0-∞ [2, 5]: 2.703±1.558 h^2
- concentration in tumor over time ([3]; H22 tumor-bearing mice, i.v. 20 mg/kg 5-FA): undetectable after 6 h
- concentration at 15 min ([3]; Kunming, mouse, tumor, iv, 20 mg/kg): 4860 ± 1620 ng/g
- Kp at 4 h ([3]; Kunming, mouse, tumor/plasma, iv, 20 mg/kg, H22 tumor-bearing mice, i.v., 4 h after injection, read-out: ratio of tumor/plasma concentration): 1.99
Compound: O=C(O)Cn1cc(F)c(=O)[nH]c1=O [5-FA, 5-fluorouracil-1-acetic acid]
- number of blood platelets ([1]; 1 day after injection): 945 ± 139 ×10^9/L
- number of blood platelets ([1]; 4 days after injection): 781 ± 250 ×10^9/L
- number of white blood cells ([1]; 4 days after injection): 10.32±5.71 ×10^9/L
- number of blood platelets ([1]; 7 days after injection): 822 ± 198 ×10^9/L
- number of white blood cells ([1]; 7 days after injection): 10.24±4.50 ×10^9/L
- number of blood platelets ([1]; 10 days after injection): 860 ± 188 ×10^9/L
- number of white blood cells ([1]; 10 days after injection): 11.55±3.62 ×10^9/L
